According to publication PMC4638191, “Multicomponent reaction-based synthesis and biological evaluation of tricyclic heterofused quinolines with multi-trypanosomatid activity” (European Journal of Medicinal Chemistry, 2015):
Where two headings read alike, the source gives them in different places. Marks after values point to notes of the source that are not given here.

Legend:
[1] = tested on: bloodstream form T. brucei (strain 221); assay: Trypanocidal activity against cultured bloodstream form T. brucei (resazurin); conditions: for IC50: mean of triplicate ± SEM; for IC90: pH 7.4, read-out: T. brucei IC90
Method: T. brucei in the logarithmic phase of growth were diluted back to 2.5 × 10^4 mL^−1 and aliquoted into 96-well plates. The compounds were then added at a range of concentrations and the plates incubated at 37 °C. Each drug concentration was tested in triplicate. Resazurin was added after 48 h and the plates incubated for a further 16 h and the plates then read in a Spectramax plate reader. Results were analysed using GraphPad Prism.

[2] = biological target: T1, Electrophorus electricus AChE (EeAChE) (Electrophorus electricus, UniProt O42275); parameters: method as in PMID 24389509; conditions: same experimental conditions; ref [40]; cited from earlier work
[3] = tested on: human recombinant AChE (hAChE); parameters: method as in PMID 24389509; conditions: ref [40]; cited from earlier work
[4] = tested on: rat skeletal myoblast L6 cells; assay: cells; conditions: L6, read-out: L6 cells IC50
Method: (§1) Cytotoxicity against mammalian cells was assessed using microtitre plates following a described procedure [58]. Briefly, rat skeletal muscle L6 cells were seeded at 1 × 10^4 mL^−1 in 200 μL of growth medium containing different compound concentrations. The plates were incubated for 6 days at 37 °C and 20 μL resazurin was then added to each well. After a further 8 h incubation, the fluorescence was determined using a Spectramax plate reader.

in vitro [5] = conditions: rat
Method: as §1

[6] = biological target: T1, Electrophorus electricus AChE (EeAChE); assay: biochemical; assay type: biochemical; conditions: for IC50: mean ± SEM; for inhibition at 30 µM: the IC50 could not be determined
[7] = tested on: L. infantum strain MCAN/ES/92/BCN722 promastigote forms; assay: Activity against promastigotes of L. infantum (acid phosphatase); assay type: cell-based, Leishmania infantum; conditions: promastigote form, mean ± SD of duplicate experiments performed at least twice
[8] = for Pe: PAMPA-BBB, PBS:EtOH 70:30, mean ± SD of three independent experiments; for Pe (prediction) of BBB permeation: class from PAMPA-BBB Pe
Method: (§2) Thus, the brain passive permeability of the novel compounds was evaluated in vitro through the widely used PAMPA-BBB method [[50]

[9] = tested on: T. cruzi strain MHOM/ES/2203/BCN590 (Tcl) epimastigote forms; assay: Activity against epimastigotes of T. cruzi (cell counting); conditions: mean ± SD of duplicate experiments performed at least twice
in vitro [10] = conditions: pig, PAMPA
Method: as §2

[11] = commercial drugs for PAMPA-BBB validation; ref [2]; cited from earlier work
[12] = tested on: rat skeletal myoblast L6 cells
Method: as §1

[13] = tested on: bloodstream form T. brucei (strain 221); conditions: read-out: T. brucei IC50; nifurtimox reference value; ref [49]; cited from earlier work
[14] = Trypanosoma brucei, pH 7.4, read-out: T. brucei IC50, bloodstream form, pH 7.4
[15] = rat skeletal muscle L6 cells, SITb: selectivity index as the ratio of cytotoxic to anti-T. brucei IC50 values, L6 IC50 / T. brucei IC50
[16] = Trypanosoma cruzi, read-out: T. cruzi IC50, epimastigote form
[17] = read-out: T. cruzi IC50, epimastigote form
[18] = rat skeletal muscle L6 cells, SILi: selectivity index as the ratio of cytotoxic to anti-L. infantum IC50 values, L6 IC50 / L. infantum IC50
[19] = rat skeletal muscle L6 cells, SITc: selectivity index as the ratio of cytotoxic to anti-T. cruzi IC50 values, L6 IC50 / T. cruzi IC50
[20] = read-out: T. brucei IC50, bloodstream form, pH 7.4

T1 sequence (O42275 24-633): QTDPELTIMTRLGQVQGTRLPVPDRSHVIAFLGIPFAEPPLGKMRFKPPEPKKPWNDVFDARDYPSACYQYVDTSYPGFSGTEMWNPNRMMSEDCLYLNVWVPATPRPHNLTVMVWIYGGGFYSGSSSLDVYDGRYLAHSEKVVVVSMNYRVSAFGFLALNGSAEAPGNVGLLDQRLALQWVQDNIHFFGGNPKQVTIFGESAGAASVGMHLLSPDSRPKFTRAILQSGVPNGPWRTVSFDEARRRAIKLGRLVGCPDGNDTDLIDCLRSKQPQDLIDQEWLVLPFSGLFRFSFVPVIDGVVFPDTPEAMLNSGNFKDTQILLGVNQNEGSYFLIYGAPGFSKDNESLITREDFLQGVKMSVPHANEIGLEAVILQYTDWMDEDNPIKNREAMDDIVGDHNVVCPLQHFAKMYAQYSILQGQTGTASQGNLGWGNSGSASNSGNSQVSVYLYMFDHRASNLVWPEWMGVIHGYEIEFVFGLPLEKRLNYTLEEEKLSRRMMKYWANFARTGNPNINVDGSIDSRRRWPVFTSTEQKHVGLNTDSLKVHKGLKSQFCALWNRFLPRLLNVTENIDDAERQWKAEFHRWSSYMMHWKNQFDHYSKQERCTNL

Row | SMILES | IC50 [1, 14] [µM] | IC90 ([1]; Trypanosoma brucei) [µM] | IC50 [4] [µM] | selectivity ratio at 6 days (in vitro [5]; [15]) | IC50 [6] [µM] | IC50 ([7]; Leishmania infantum) [µM] | Pe [8] | Pe (prediction) of BBB permeation [8] | IC50 [9, 16] [µM] | selectivity ratio at 6 days (in vitro [5]; [18]) | selectivity ratio at 6 days (in vitro [5]; [19]) | further results
1 | CCNCc1ccc2nc(-c3ccc(Cl)cc3)c3c(c2c1)N(Cc1ccccc1)CCC3 [Compound 1] | 3.33 ± 0.18 | 4.39 ± 0.04 | 7.08 ± 0.11 | 2.1 | – | – | – | – | – | – | – | IC50 [2]: 0.15 ± 0.01 µM; IC50 [3]: 0.94 µM
2 | NCc1ccc(-c2nc3ccc(Cl)cc3c3c2CCCCN3)cc1 [Compound 32, 4-{10-Chloro-2,3,4,5-tetrahydro-1H-azepino[3,2-c]quinolin-6-yl}benzylamine] | 2.33 ± 0.12 | 3.35 ± 0.05 | 7.02 ± 0.27 | 3 | 1.2 ± 0.13 | 5 to 8 | 11.6 ± 0.2 10^−6 cm s^−1 | CNS+ (compounds of high BBB permeation (CNS+): Pe (10^−6 cm s^−1) > 5.25) | ~30 | 1.5 | 0.2 | IC50 [7]: 4.8 ± 0.7 µM; IC50 [9, 17]: 32.4 ± 0.6 µM
3 | NCc1ccc(-c2nc3cc(Cl)ccc3c3c2CCCN3)cc1 [Compound 33, 4-{8-Chloro-1,2,3,4-tetrahydrobenzo[h][1,6]naphthyridin-5-yl}benzylamine] | 1.25 ± 0.05 | 2.12 ± 0.02 | 3.07 ± 0.66 | 2.5 | 0.44 ± 0.04 | 13 ± 0.6 | 4.0 ± 1.0 10^−6 cm s^−1 | – | 76.1 ± 3.2 | 0.2 | 0.04 | –
4 | N#Cc1ccc(-c2nc3ccc(Cl)cc3c3c2CCCO3)cc1 [Compound 38, 4-{9-Chloro-3,4-dihydro-2H-pyrano[3,2-c]quinolin-5-yl}benzonitrile] | 9.61 ± 0.27 | 13.7 ± 1 | 36.3 ± 8.1 | 3.8 | 2.7 ± 0.45 | 23.5 ± 2.4 | 29.7 ± 3.8 10^−6 cm s^−1 | CNS+ (compounds of high BBB permeation (CNS+): Pe (10^−6 cm s^−1) > 5.25) | 178 ± 92 | 1.5 | 0.2 | –
5 | NCc1ccc(-c2nc3ccc(Cl)cc3c3c2CCCO3)cc1 [Compound 39, 4-{9-Chloro-3,4-dihydro-2H-pyrano[3,2-c]quinolin-5-yl}benzylamine] | 1.5 | 1.77 ± 0.02 | 7 ± 0.19 | 4.8 | > 30 | 6.1 ± 0.2 | 15.5 ± 1.8 10^−6 cm s^−1 | CNS+ (compounds of high BBB permeation (CNS+): Pe (10^−6 cm s^−1) > 5.25) | ~30 | 1.1 | 0.2 | inhibition at 30 µM [6]: 45%; IC50 [1, 20]: 1.46 ± 0.02 µM; IC50 [9, 17]: 29.2 ± 3.7 µM
6 | Clc1ccc2nc(-c3cccs3)c(CCCN3CCCC3)cc2c1 [Compound 49, N-{3-[6-Chloro-2-(2-thienyl)quinolin-3-yl]propyl}pyrrolidine] | ~5 | 4.93 ± 0.17 | 9.44 ± 0.14 | 2.7 | ~30 | ~15 | 12.9 ± 0.1 10^−6 cm s^−1 | CNS+ (compounds of high BBB permeation (CNS+): Pe (10^−6 cm s^−1) > 5.25) | 35.2 ± 12.6 | 0.7 | 0.3 | inhibition at 30 µM [6]: 54%; IC50 [1, 20]: 3.56 ± 0.17 µM; IC50 [7]: 13.1 ± 5.8 µM
7 | CCn1cc(C(=O)O)c(=O)c2cc(F)c(N3CCNCC3)cc21 [Norfloxacin] | – | – | – | – | – | – | – | – | – | – | – | Papp (in vitro [10]): 0.9 ± 0.02 ×10⁻⁶ cm/s
8 | CN1C(C(=O)Nc2ccccn2)=C(O)c2ccccc2S1(=O)=O [Piroxicam] | – | – | – | – | – | – | – | – | – | – | – | Pe, literature value [11]: 2.5 10–6 cm s–1
9 | CN(C)CCCN1c2ccccc2Sc2ccccc21 [Promazine] | – | – | – | – | – | – | – | – | – | – | – | Pe, literature value [11]: 8.8 10–6 cm s–1
10 | O.O.O.O=C([O-])C(O)C(O)C(=O)[O-].O=C([O-])C(O)C(O)C(=O)[O-].[K+].[K+].[Sb].[Sb] (stereo not shown) [Sb (III), Potassium antimony (III) tartrate hydrate, reference compound] | – | – | – | – | – | – | – | – | – | – | – | IC50 [7]: 24.3 ± 1.7 µM; SILi: selectivity index as the ratio of cytotoxic to anti-L. infantum IC50 values [12]: 0.1 ^g
11 | CC1CS(=O)(=O)CCN1/N=C/c1ccc([N+](=O)[O-])o1 (stereo not shown) [nifurtimox, reference compound] | – | – | 32 ± 1.1 | – | – | – | – | – | – | – | – | IC50 [13]: 4.4 ± 0.7 µM; selectivity ratio at 6 days (in vitro [5]; SITb: selectivity index as the ratio of cytotoxic to anti-T. brucei IC50 values): 7.3
